Patent EP0698025B1, “AMPA ANTAGONISTS AND A METHOD OF TREATMENT THEREWITH” (NEUROSEARCH A/S, priority 1993, dated 1994)

How the values were obtained:
[1] = target: AMPA receptor; assay: AMPA receptor binding affinity (as described by T. Honoré et al., Neuroscience Letters 54, 27-32 (1985)); conditions: binding affinity for the AMPA receptor
[2] = system: AMPA-induced clonic seizures; assay: In vivo AMPA seizure test (AMPA-induced clonic seizures); set-up: species or system female NMRI mice; conditions: Mus musculus; dose inhibiting 50% of the mice from having clonic seizures; test compound i.v. 5 min (or p.o. 30 min) before 0.3 µg icv AMPA; route not given
Procedure: Also compounds of the present invention when adminestered i.v. or i.p. in the in vivo AMPA seizure test as described below inhibit the clonic seizures induced by AMPA.
AMPA given icv (intracerebroventricular) (15 µg/kg) NMRI to mice induces clonic seizures which should be inhibited by non-NMDA receptor antagonists. Method: Test compound was given i.v. 5 min (or p.o. 30 min) before a 0.3 µg icv administration of AMPA to 10 female NMRI mice (weighing 24-26 g) per dose. The number of mice experiencing clonic seizures within the next 5 min was noted. An ED50 value was calculated as the dose inhibiting 50% of the mice from having clonic seizures.

IC50 [1]	SMILES	ED50 [2]
600 nM	CN1Cc2c(-c3ccc([N+](=O)[O-])cc3)cc3[nH]c(=O)c(=O)[nH]c3c2C1 [Compound 3]	
200 nM	CN1CCc2c(-c3ccccc3)cc3c(c2C1)NC(=O)C3=NO [Compound 9, 8-methyl-5-phenyl-6,7,8,9-tetrahydro-1H-pyrrolo[3,2-h]isoquinoline-2,3-dione 3-oxime]	
150 nM	CN1CCc2c(-c3ccc([N+](=O)[O-])cc3)cc3c(c2C1)NC(=O)C3=NO [Compound 10, 8-methyl-5-(4-nitrophenyl)-6,7,8,9-tetrahydro-1H-pyrrolo[3,2-h]isoquinoline-2,3-dione 3-oxime]	5 mg/kg
100 nM	CCN1Cc2c(-c3ccccc3)cc3c(c2C1)NC(=O)C3=NO [Compound 13]	
